The values that follow come from patent publication US10369165B2, “Composition containing active components of Dracocephalum moldavica L. against myocardial ischemia-reperfusion injury” (Nanjing Ruiying Runze Biopharmaceutical Technology Co., Inc., priority 2014, dated 2019).

Assay [1] deals with rat primary cardiac myocytes. The assay can be described thus: pH of culture supernatant of rat primary cardiac myocytes injured by nitrogen hypoxia/reoxygenation. The class given is cell-based. Particulars: 30 μM; culture medium supernatant; hypoxia 6 h, reoxygenation 5 h. As for the experimental part:
Experiment method: Wistar ventricular myocytes of neonatal rat aged 2 d are isolated under asepsis condition, then the myocytes are digested with mixture of digestive enzymes (0.06% trypsin and 0.1% type II collagenase mixed in equal amount) for multiple times in a short time. Cardiac myocytes are purified using differential adhesion method. […] The cells are cultured for 24 hours, then the supernatant is discarded, and the cells are washed with PBS three times. All of the cells are classified into contrast group, hypoxia/reoxygenation injury group, hypoxia/reoxygenation model+compatible composition group. After pre-treatment for 24 h, all of the hypoxia/reoxygenation injury groups are placed in glucose-free Earle's solution which has been previously saturated with mixture of 95% N2+5% CO2 for 1 hour. The cells are cultured in hypoxic condition for 6 h at 37° C. in constant-temperature incubator introduced with the mixture of 95% N2+5% CO^2. Then the hypoxia treated cells are subjected to reoxygenation in normal condition for 5 h with the high glucose medium DMEM (containing 10% FBS) which has been previously saturated with mixture of 95% air+5% CO2. At the same time, the cells are incubated with compatible compositions. After treating the experimental groups of cells, the supernatant is collected; the pH of supernatant of culture medium is measured directly with pH meter.

The next assay deals with T1, SHP-2 (Homo sapiens, UniProt Q06124).
T1 sequence (Q06124 1-593): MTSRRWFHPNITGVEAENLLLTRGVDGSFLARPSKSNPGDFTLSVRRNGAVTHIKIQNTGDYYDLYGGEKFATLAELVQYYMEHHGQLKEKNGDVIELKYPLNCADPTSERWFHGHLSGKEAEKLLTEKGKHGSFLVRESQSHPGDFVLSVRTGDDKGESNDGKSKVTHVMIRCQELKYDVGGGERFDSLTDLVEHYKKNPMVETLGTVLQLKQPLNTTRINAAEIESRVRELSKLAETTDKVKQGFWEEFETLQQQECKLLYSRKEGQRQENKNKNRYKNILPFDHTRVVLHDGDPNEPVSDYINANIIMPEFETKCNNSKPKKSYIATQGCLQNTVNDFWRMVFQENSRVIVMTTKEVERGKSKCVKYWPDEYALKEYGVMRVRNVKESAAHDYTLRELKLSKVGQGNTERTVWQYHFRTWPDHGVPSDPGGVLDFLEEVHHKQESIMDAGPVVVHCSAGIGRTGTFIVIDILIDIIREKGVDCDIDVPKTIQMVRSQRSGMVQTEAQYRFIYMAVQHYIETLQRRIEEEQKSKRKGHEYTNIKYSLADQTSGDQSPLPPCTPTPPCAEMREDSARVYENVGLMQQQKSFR
Conditions: previous studies; cited from earlier work.

Assay [2] has as its system myocardial ischemia-reperfusion injury (MIRI). Conditions: previous studies; cited from earlier work.
Assay [3] concerns rat primary cardiac myocytes. The assay can be described thus: ATP, ADP, AMP content (HPLC) of rat primary cardiac myocytes injured by nitrogen hypoxia/reoxygenation. The class given is cell-based. Particulars: 30 μM, cell lysate supernatant. As for the experimental part: Experiment method: Wistar ventricular myocytes of neonatal rat aged 2 d are isolated under asepsis condition, then the myocytes are digested with mixture of digestive enzymes (0.06% trypsin and 0.1% type II collagenase mixed in equal amount) for multiple times in a short time. Cardiac myocytes are purified using differential adhesion method. […] The cells are cultured for 24 hours, then the supernatant is discarded, and the cells are washed with PBS three times. All of the cells are classified into contrast group, hypoxia/reoxygenation injury group, hypoxia/reoxygenation model+compatible composition group. After pre-treatment for 24 h, all of the hypoxia/reoxygenation injury groups are placed in glucose-free Earle's solution which has been previously saturated with mixture of 95% N2+5% CO2 for 1 hour. The cells are cultured in hypoxic condition for 6 h at 37° C. in constant-temperature incubator introduced with the mixture of 95% N2+5% CO2. Then the hypoxia treated cells are subjected to reoxygenation in normal condition for 5 h with the high glucose medium DMEM (containing 10% FBS) which has been previously saturated with mixture of 95% air+5% CO2. At the same time, the cells are incubated with compatible compositions. After treating the experimental groups of cells, the culture solution is discarded. The cells are washed once with pre-cooled PBS. 500 μl pre-cooled 50% perchlorate solution is added in each well. Pyrolysis of cells take place on ice for 5 min. The cells are scrapped, 600 μl of 2.5 mol/L Na2CO3 solution is added, and pH is adjusted to 6.5. Pyrolysis mixture is collected in centrifuge tube and centrifuged in 4° C. Content of supernatant is determined by HPLC. […] The content is determined with HPLC method. The equipment is LC-2010C quaternionic pump high performance liquid chromatogram, analytical column is Diamonsil C18 column (250 mm×4.6 mm, 5 μm), detection wavelength: 260 nm, mobile phase is 0.05M phosphate buffer (pH 6.5), detector is UV-vis detector. Flow-rate of column is 0.8 ml/min, sample size is 20 μl, and analytical time is 12 min, the data is processed using LCsolution chromatography workstation (Japan, […]).

In assay [4] the test system is rat primary cardiac myocytes. In words: MTT cell activity of rat primary cardiac myocytes injured by hypoxia/reoxygenation. Conditions: 30 μM, 24 h pre-treatment, hypoxia 6 h, reoxygenation 5 h. It is filed as cell-based. Here is the method: Wistar ventricular myocytes of neonatal rat aged 2 d are isolated under asepsis condition, then the myocytes are digested with mixture of digestive enzymes (0.06% trypsin and 0.1% type II collagenase mixed in equal amount) for multiple times in a short time. Cardiac myocytes are purified using differential adhesion method. […] The cells are cultured for 24 hours, then the supernatant is discarded, and the cells are washed with PBS three times. […] After pre-treatment for 24 h, all of the hypoxia/reoxygenation injury groups are placed in glucose-free Earle's solution which has been previously saturated with mixture of 95% N2+5% CO2 for 1 hour. The cells are cultured in hypoxic condition for 6 h at 37° C. in constant-temperature incubator introduced with the mixture of 95% N2+5% CO2. Then the hypoxia treated cells are subjected to reoxygenation in normal condition for 5 h with the DMEM high glucose medium (containing 10% FBS) which has been previously saturated with mixture of 95% air+5% CO2. At the same time, the cells are incubated with the administration of compatible compositions. After treating the experimental groups of cells, 20 μg/ml MTT is added, and each experimental group is cultured for 4 h, then MTT is solved in 150 μl DMSO. OD of each well is read by ELISA meter at wavelength of 490 nm, and activity of cells is determined.

Assay [5] has as its system rat primary cardiac myocytes. The assay can be described thus: LDH leak of rat primary cardiac myocytes injured by nitrogen hypoxia/reoxygenation. The class given is cell-based. Conditions: 30 μM; culture medium supernatant; hypoxia 6 h, reoxygenation 5 h. Here is the method: Experiment Method: Wistar ventricular myocytes of neonatal rat aged 2 d are isolated under asepsis condition, then the myocytes are digested with mixture of digestive enzymes (0.06% trypsin and 0.1% type II collagenase mixed in equal amount) for multiple times in a short time. Cardiac myocytes are purified using differential adhesion method. […] The cells are cultured for 24 hours, then the supernatant is discarded, and the cells are washed with PBS three times. All of the cells are classified into contrast group, hypoxia/reoxygenation injury group, hypoxia/reoxygenation model+compatible composition group. After pre-treatment for 24 h, all of the hypoxia/reoxygenation injury groups are placed in glucose-free Earle's solution which has been previously saturated with mixture of 95% N2+5% CO2 for 1 hour. The cells are cultured in hypoxic condition for 6 h at 37° C. in constant-temperature incubator introduced with mixture of 95% N2+[…]. Then the hypoxia treated cells are subjected to reoxygenation in normal condition for 5 h with the high glucose medium DMEM (containing 10% FBS) which has been previously saturated with mixture of 95% air+[…]. At the same time, the cells are incubated with compatible compositions. After treating the experimental groups of cells, the supernatant is collected; the content of LDH leak in supernatant of culture medium is measured according to the steps of LDH kit.

Assay [6] has as its system rat H9c2 cardiac myocytes. In words: MTT cell activity of H9c2 cardiac myocytes after hypoxia/reoxygenation injury. The class given is cell-based. Conditions: total 30 μM, 12 h preincubation, hypoxia 6 h, reoxygenation 5 h. As for the experimental part:
Rat cardiac myocytes H9c2 in logarithmic growth phase are taken. After digestion, the cells are resuspended with DMEM medium (containing 10% FBS), then inoculated into 96-well plate and normally cultured in incubator of 37° C. and 5% CO2. After entering logarithmic growth phase, the cells are divided into following groups for experiment: (1) normal culture group (Control group): during the experiment, cells are normally cultured in incubator of 37° C. and 5% CO2; (2) […] Model group (Model group): normal culture fluid for the experimental cells in logarithmic growth phase is replaced with glucose-free Earle's solution which has been previously saturated with mixture of 95% N2+5% CO2 for 1 hour. Then the cells are cultured in hypoxic condition for 6 h at 37° C. in constant-temperature incubator introduced with the mixture of 95% N2+5% CO2. Then the hypoxia treated cells are subjected to reoxygenation in normal condition for 5 h with the high glucose medium DMEM (containing 10% FBS) which has been previously saturated with mixture of 95% air+5% CO2. (3) pre-treated compatible group of luteilon, kaempferol and luteolin-7-O-glucoside: H9c2 cells are preincubated for 12 h with luteilon, kaempferol and luteolin-7-O-glucoside combined in different ratios. Then, the normal culture solution is replaced with glucose-free Earle's solution which has been previously saturated with mixture of 95% N2+5% CO2 for 1 hour. After anoxic treatment for 6 h with N2 anoxic tank, the cells are subjected to reoxygenation for 5 h in normal culture condition with normal culture solution; meanwhile the cells are incubated with the administration of each compatible drug. After treatment, 20 μg/ml MTT is added, and each experimental group is cultured for 4 h, then MTT is solved in 150 μl DMSO. OD of each well is read by ELISA meter at wavelength of 490 nm, and activity of cells is determined.

For the next assay, the target named is PTEN (Homo sapiens, UniProt P60484). Conditions: previous studies; cited from earlier work.
PTEN, sequence (P60484 whole entry, species assumed): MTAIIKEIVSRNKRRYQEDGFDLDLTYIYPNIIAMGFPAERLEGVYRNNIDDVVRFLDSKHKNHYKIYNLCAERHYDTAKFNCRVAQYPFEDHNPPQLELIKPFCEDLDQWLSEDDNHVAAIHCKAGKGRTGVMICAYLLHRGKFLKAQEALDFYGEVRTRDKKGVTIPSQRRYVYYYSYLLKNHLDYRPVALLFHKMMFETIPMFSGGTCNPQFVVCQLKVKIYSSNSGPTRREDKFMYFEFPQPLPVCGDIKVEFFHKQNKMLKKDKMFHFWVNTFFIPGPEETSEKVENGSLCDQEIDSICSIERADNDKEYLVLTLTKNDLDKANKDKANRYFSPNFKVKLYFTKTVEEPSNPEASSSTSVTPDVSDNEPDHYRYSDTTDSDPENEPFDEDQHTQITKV

`O=c1c(O)c(-c2ccc(O)cc2)oc2cc(O)cc(O)c12` [Kaempferol, kaempferol]: the pH of supernatant in assay [1] came out at 7.10. In addition, the “activity of SHP-2” value on SHP-2 was “inhibit”. In assay [2], the heart rate result is given as “maintain” and the “mitochondrial Ca2+” value is given as “reduce”. In assay [3], this compound displayed an ADP of 17.15 µg/mL, an AMP of 7.15 µg/mL and an ATP of 84.72 µg/mL. Moreover, in assay [4], the “protection rate of cell activity (%)” value is 69.22%. Besides, the “Leak rate (%) of LDH” value in assay [5] came to 111.25%. Further, the “protection rate of cell activity (%)” value in assay [6] is recorded as 76.97 ± 6.67%. In addition, the “activity of PTEN” value on PTEN is “inhibit”.

As to `O=c1cc(-c2ccc(O)c(O)c2)oc2cc(O[C@@H]3O[C@H](CO)[C@@H](O)[C@H](O)[C@H]3O)cc(O)c12` [Luteolin-7-0-glucoside, luteolin-7-O-glucoside], the pH of supernatant in assay [1] came to 7.08. In addition, in assay [2], the “level of cytoplasmic Ca2+” value is “reduce” and the “oxygen free radical damage” value is recorded as “prevent”. For the same compound, in assay [3], the ADP stood at 17.12 µg/mL, the AMP came out at 8.97 µg/mL and the ATP was 69.45 µg/mL. In assay [4], the “protection rate of cell activity (%)” value was 71.17%. Moreover, in assay [5], the “Leak rate (%) of LDH” value was found to be 115.18%. Also, the “protection rate of cell activity (%)” value in assay [6] was 78.57 ± 4.54%.

Regarding `O=c1cc(-c2ccc(O)c(O)c2)oc2cc(O)cc(O)c12` [Luteilon, luteolin], in assay [1], the pH of supernatant came out at 7.11. In assay [2], the “function of myocardial contraction” value was “improve” and the mitochondrial membrane potential result is recorded as “increase”. In assay [3], the ADP was 15.38 µg/mL, the AMP was found to be 7.59 µg/mL and the ATP was determined as 102.88 µg/mL. Also, in assay [4], the “protection rate of cell activity (%)” value is 68.08%. Moreover, the “Leak rate (%) of LDH” value in assay [5] came out at 122.37%. Besides, the “protection rate of cell activity (%)” value in assay [6] turned out to be 81.93 ± 7.18%.
